Laboratory results taken from US10253052B2, “HBED-bisphosphonates, radiometal conjugates and their use as theranostic agents” (Five Eleven Pharma Inc., priority 2015, dated 2019).

Legend:
[1] = In vivo biodistribution in mice; set-up: species or system normal CD-1 male mice; details: iv
Description: Biodistribution experiments were performed by intravenously administering ^68Ga labeled 1a-h, 2, 3, BPAMD, and [^18F]NaF into normal, healthy male CD-1 mice (25-30 g). The injection activity was 20-30 μCi/animal. […] Organs of interest were harvested, weighed, and counts of radioactivity were measured by a gamma counter. The biodistribution of each sample was calculated as a percentage of the injected dose per gram of wet tissue weight (% ID/g). Tibia and femur bones were harvested and counted as bone samples.

[2] = In vitro binding to hydroxyapatite; details: 20 mg hydroxyapatite in saline, 10 min at room temperature
Description: Hydroxyapatite (20 mg, Sigma-Aldrich, reagent grade powder) was incubated in isotonic saline (1 mL) for 24 h. Subsequently, either ^68Ga labeled 1a-h, 2, 3, BPAMD, or [^18F]NaF (1 μCi) was added to the hydroxyapatite suspension. After vortexing for 10 seconds, the suspension was incubated for 10 min at room temperature. The samples were then centrifuged at 10,000 rpm for 3 min and the supernatant was removed. The hydroxyapatite fraction was washed twice with saline (1 mL). Radioactivity in the combined supernatants and the hydroxyapatite fraction was measured using a gamma counter. The proportion of the ^68Ga complex binding to hydroxyapatite was determined as percent of ^68Ga absorbed to hydroxyapatite.

C[C@H](NC(=O)CCc1ccc([O-])c(CN(CCN(CC(=O)[O-])Cc2cc(CCC(=O)NC(P(=O)(O)O)P(=O)(O)O)ccc2[O-])CC(=O)[O-])c1)C(=O)O.[68Ga+3] [[^68Ga]1d]
bone to blood ratio ([1]; 2 min): 1.1 | bone to muscle ratio ([1]; 2 min): 5.9 | Biodistribution: Blood ([1]; 2 min post injection): 9.08 ± 0.58 % dose/g | Biodistribution: Bone ([1]; 2 min post injection): 10.1 ± 2.05 % dose/g | Biodistribution: Brain ([1]; 2 min post injection): 0.29 ± 0.05 % dose/g | Biodistribution: Heart ([1]; 2 min post injection): 2.99 ± 0.26 % dose/g | Biodistribution: Kidney ([1]; 2 min post injection): 25.3 ± 3.89 % dose/g | Biodistribution: Liver ([1]; 2 min post injection): 1.89 ± 0.16 % dose/g | Biodistribution: Lung ([1]; 2 min post injection): 4.83 ± 0.25 % dose/g | Biodistribution: Muscle ([1]; 2 min post injection): 1.72 ± 0.15 % dose/g | Biodistribution: Pancreas ([1]; 2 min post injection): 1.53 ± 0.14 % dose/g | Biodistribution: Skin ([1]; 2 min post injection): 2.39 ± 0.13 % dose/g | Biodistribution: Spleen ([1]; 2 min post injection): 1.72 ± 0.24 % dose/g | bone to blood ratio ([1]; 30 min): 29 | bone to muscle ratio ([1]; 30 min): 64 | Biodistribution: Blood ([1]; 30 min (0.5 hr) post injection): 0.53 ± 0.13 % dose/g | Biodistribution: Bone ([1]; 30 min (0.5 hr) post injection): 15.3 ± 1.26 % dose/g | Biodistribution: Brain ([1]; 30 min (0.5 hr) post injection): 0.03 ± 0.00 % dose/g | Biodistribution: Heart ([1]; 30 min (0.5 hr) post injection): 0.26 ± 0.06 % dose/g | Biodistribution: Kidney ([1]; 30 min (0.5 hr) post injection): 2.14 ± 0.60 % dose/g | Biodistribution: Liver ([1]; 30 min (0.5 hr) post injection): 0.26 ± 0.09 % dose/g | Biodistribution: Lung ([1]; 30 min (0.5 hr) post injection): 0.45 ± 0.10 % dose/g | Biodistribution: Muscle ([1]; 30 min (0.5 hr) post injection): 0.24 ± 0.06 % dose/g | Biodistribution: Pancreas ([1]; 30 min (0.5 hr) post injection): 0.21 ± 0.12 % dose/g | Biodistribution: Skin ([1]; 30 min (0.5 hr) post injection): 0.42 ± 0.10 % dose/g | Biodistribution: Spleen ([1]; 30 min (0.5 hr) post injection): 0.21 ± 0.07 % dose/g | bone to blood ratio ([1]; 60 min): 144 | bone to muscle ratio ([1]; 60 min): 235 | Biodistribution: Blood ([1]; 60 min (1 hr) post injection): 0.10 ± 0.01 % dose/g | Biodistribution: Bone ([1]; 60 min (1 hr) post injection): 14.7 ± 0.50 % dose/g | Biodistribution: Brain ([1]; 60 min (1 hr) post injection): 0.01 ± 0.00 % dose/g | Biodistribution: Heart ([1]; 60 min (1 hr) post injection): 0.08 ± 0.01 % dose/g | Biodistribution: Kidney ([1]; 60 min (1 hr) post injection): 1.05 ± 0.17 % dose/g | Biodistribution: Liver ([1]; 60 min (1 hr) post injection): 0.12 ± 0.01 % dose/g | Biodistribution: Lung ([1]; 60 min (1 hr) post injection): 0.17 ± 0.01 % dose/g | Biodistribution: Muscle ([1]; 60 min (1 hr) post injection): 0.06 ± 0.00 % dose/g | Biodistribution: Pancreas ([1]; 60 min (1 hr) post injection): 0.06 ± 0.01 % dose/g | Biodistribution: Skin ([1]; 60 min (1 hr) post injection): 0.13 ± 0.01 % dose/g | Biodistribution: Spleen ([1]; 60 min (1 hr) post injection): 0.06 ± 0.00 % dose/g | bone to blood ratio ([1]; 120 min): 278 | bone to muscle ratio ([1]; 120 min): 417 | Biodistribution: Blood ([1]; 120 min post injection): 0.06 ± 0.02 % dose/g | Biodistribution: Bone ([1]; 120 min post injection): 17.0 ± 1.10 % dose/g | Biodistribution: Brain ([1]; 120 min post injection): 0.00 ± 0.00 % dose/g | Biodistribution: Heart ([1]; 120 min post injection): 0.06 ± 0.01 % dose/g | Biodistribution: Kidney ([1]; 120 min post injection): 0.91 ± 0.15 % dose/g | Biodistribution: Liver ([1]; 120 min post injection): 0.10 ± 0.01 % dose/g | Biodistribution: Lung ([1]; 120 min post injection): 0.09 ± 0.02 % dose/g | Biodistribution: Muscle ([1]; 120 min post injection): 0.04 ± 0.01 % dose/g | Biodistribution: Pancreas ([1]; 120 min post injection): 0.04 ± 0.01 % dose/g | Biodistribution: Skin ([1]; 120 min post injection): 0.09 ± 0.01 % dose/g | Biodistribution: Spleen ([1]; 120 min post injection): 0.05 ± 0.01 % dose/g | Hydroxyapatite Binding (%) [2]: 95.1 ± 0.5%

O=C([O-])CN(CCN(CC(=O)[O-])Cc1cc(CCC(=O)N[C@@H](CC(=O)O)C(=O)O)ccc1[O-])Cc1cc(CCC(=O)NC(P(=O)(O)O)P(=O)(O)O)ccc1[O-].[68Ga+3] [[^68Ga]1e]
bone to blood ratio ([1]; 2 min): 1 | bone to muscle ratio ([1]; 2 min): 5 | Biodistribution: Blood ([1]; 2 min post injection): 8.31 ± 0.57 % dose/g | Biodistribution: Bone ([1]; 2 min post injection): 8.82 ± 0.77 % dose/g | Biodistribution: Brain ([1]; 2 min post injection): 0.20 ± 0.04 % dose/g | Biodistribution: Heart ([1]; 2 min post injection): 2.55 ± 0.06 % dose/g | Biodistribution: Kidney ([1]; 2 min post injection): 24.8 ± 3.02 % dose/g | Biodistribution: Liver ([1]; 2 min post injection): 1.90 ± 0.13 % dose/g | Biodistribution: Lung ([1]; 2 min post injection): 4.00 ± 0.20 % dose/g | Biodistribution: Muscle ([1]; 2 min post injection): 1.71 ± 0.19 % dose/g | Biodistribution: Pancreas ([1]; 2 min post injection): 1.27 ± 0.07 % dose/g | Biodistribution: Skin ([1]; 2 min post injection): 2.54 ± 0.26 % dose/g | Biodistribution: Spleen ([1]; 2 min post injection): 1.72 ± 0.19 % dose/g | bone to blood ratio ([1]; 30 min): 29 | bone to muscle ratio ([1]; 30 min): 67 | Biodistribution: Blood ([1]; 30 min (0.5 hr) post injection): 0.57 ± 0.12 % dose/g | Biodistribution: Bone ([1]; 30 min (0.5 hr) post injection): 16.5 ± 0.56 % dose/g | Biodistribution: Brain ([1]; 30 min (0.5 hr) post injection): 0.02 ± 0.01 % dose/g | Biodistribution: Heart ([1]; 30 min (0.5 hr) post injection): 0.26 ± 0.04 % dose/g | Biodistribution: Kidney ([1]; 30 min (0.5 hr) post injection): 2.26 ± 0.27 % dose/g | Biodistribution: Liver ([1]; 30 min (0.5 hr) post injection): 0.27 ± 0.02 % dose/g | Biodistribution: Lung ([1]; 30 min (0.5 hr) post injection): 0.42 ± 0.08 % dose/g | Biodistribution: Muscle ([1]; 30 min (0.5 hr) post injection): 0.25 ± 0.03 % dose/g | Biodistribution: Pancreas ([1]; 30 min (0.5 hr) post injection): 0.17 ± 0.05 % dose/g | Biodistribution: Skin ([1]; 30 min (0.5 hr) post injection): 0.86 ± 0.22 % dose/g | Biodistribution: Spleen ([1]; 30 min (0.5 hr) post injection): 0.19 ± 0.02 % dose/g | bone to blood ratio ([1]; 60 min): 138 | bone to muscle ratio ([1]; 60 min): 258 | Biodistribution: Blood ([1]; 60 min (1 hr) post injection): 0.11 ± 0.02 % dose/g | Biodistribution: Bone ([1]; 60 min (1 hr) post injection): 14.9 ± 1.45 % dose/g | Biodistribution: Brain ([1]; 60 min (1 hr) post injection): 0.01 ± 0.00 % dose/g | Biodistribution: Heart ([1]; 60 min (1 hr) post injection): 0.08 ± 0.00 % dose/g | Biodistribution: Kidney ([1]; 60 min (1 hr) post injection): 2.12 ± 0.55 % dose/g | Biodistribution: Liver ([1]; 60 min (1 hr) post injection): 0.14 ± 0.01 % dose/g | Biodistribution: Lung ([1]; 60 min (1 hr) post injection): 0.15 ± 0.01 % dose/g | Biodistribution: Muscle ([1]; 60 min (1 hr) post injection): 0.06 ± 0.00 % dose/g | Biodistribution: Pancreas ([1]; 60 min (1 hr) post injection): 0.06 ± 0.01 % dose/g | Biodistribution: Skin ([1]; 60 min (1 hr) post injection): 0.12 ± 0.01 % dose/g | Biodistribution: Spleen ([1]; 60 min (1 hr) post injection): 0.09 ± 0.01 % dose/g | bone to blood ratio ([1]; 120 min): 230 | bone to muscle ratio ([1]; 120 min): 411 | Biodistribution: Blood ([1]; 120 min post injection): 0.08 ± 0.02 % dose/g | Biodistribution: Bone ([1]; 120 min post injection): 17.6 ± 2.61 % dose/g | Biodistribution: Brain ([1]; 120 min post injection): 0.01 ± 0.01 % dose/g | Biodistribution: Heart ([1]; 120 min post injection): 0.06 ± 0.01 % dose/g | Biodistribution: Kidney ([1]; 120 min post injection): 1.41 ± 0.28 % dose/g | Biodistribution: Liver ([1]; 120 min post injection): 0.14 ± 0.02 % dose/g | Biodistribution: Lung ([1]; 120 min post injection): 0.12 ± 0.02 % dose/g | Biodistribution: Muscle ([1]; 120 min post injection): 0.04 ± 0.01 % dose/g | Biodistribution: Pancreas ([1]; 120 min post injection): 0.04 ± 0.01 % dose/g | Biodistribution: Skin ([1]; 120 min post injection): 0.12 ± 0.03 % dose/g | Biodistribution: Spleen ([1]; 120 min post injection): 0.06 ± 0.01 % dose/g | Hydroxyapatite Binding (%) [2]: 95.8 ± 0.9%
